Reference: US11628160B2, “Compositions and methods for treating brain injury” (Azevan Pharmaceuticals, Inc., priority 2017, dated 2023)

Molecular target: T1, human V1a receptor (Homo sapiens, UniProt P37288)
T1 construct: host or cells: CHO cells
Assay: Human vasopressin V1a receptor binding assay
Details: hV1a CHO cell line, competition with 1 nM 3H-AVP; for IC50: read-out: V1a Binding Affinity IC50; for Ki: read-out: V1a Ki
Method: EXAMPLE. Human vasopressin V1a receptor binding assay. A cell line expressing the human V1a receptor in CHO cells (henceforth referred to as the hV1a cell line) was obtained from Dr. Michael Brownstein, NIMH, Bethesda, Md., USA. The hV1a cDNA sequence is described by Thibonnier et al., Journal of Biological Chemistry, 269, 3304-3310 (1994), and the expression method was the same as described by Morel et al. (1992). The hV1a cell line was grown in alpha-MEM with 10% fetal bovine serum and 250 ug/ml G418 (Gibco, Grand Island, N.Y., USA). For competitive binding assay, hV1a cells were plated into 6-well culture plate at 1:10 dilution from a confluency flask, and maintained in culture for at least two days. Culture medium was then removed, cells were washed with 2 ml binding buffer (25 mM Hepes, 0.25% BSA, 1×DMEM, PH=7.0). To each well, 990 μl binding buffer containing 1 nM 3H-AVP was added, and followed by 10 μl series diluted Example compounds dissolved in DMSO. […] 100 nM cold AVP (Sigma) was used to assess non-specific binding. Cells were incubated for 45 minutes at 37° C., assay mixture was removed and each well was washed three times with PBS (pH=7.4). 1 ml 2% SDS was added per well and plates were let sit for 30 minutes. The whole content in a well was transferred to a scintillation vial. Each well was rinsed with 0.5 ml PBS which was then added to the corresponding vial. Scintillation fluid (Ecoscint, National Diagnostics, Atlanta, Ga.) was then added at 3 ml per vial. Samples were counted in a liquid scintillation counter (Beckman LS3801). IC50 values were calculated by Prism Curve fitting software.
All of the alkanedioic esters and amides exemplified in the foregoing examples dissolved in DMSO were tested in this assay. Binding curves were generated according to methods described by Thibonnier et al. (1994). [^3H]-AVP was added to the hV1a cell cultures followed by 10-fold dilutions of each test compound.

T1 sequence (P37288 whole entry): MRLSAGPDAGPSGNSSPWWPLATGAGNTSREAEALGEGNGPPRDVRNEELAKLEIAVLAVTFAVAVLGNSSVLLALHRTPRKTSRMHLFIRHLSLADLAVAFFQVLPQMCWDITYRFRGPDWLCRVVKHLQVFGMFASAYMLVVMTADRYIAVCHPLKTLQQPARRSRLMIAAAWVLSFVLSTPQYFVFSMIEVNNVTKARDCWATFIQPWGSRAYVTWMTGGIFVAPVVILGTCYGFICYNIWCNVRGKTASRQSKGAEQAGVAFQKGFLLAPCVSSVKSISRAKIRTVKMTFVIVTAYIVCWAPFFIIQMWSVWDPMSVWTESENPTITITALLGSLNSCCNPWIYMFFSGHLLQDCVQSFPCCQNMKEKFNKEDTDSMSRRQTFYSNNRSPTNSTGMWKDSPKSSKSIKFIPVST

| Molecule | IC50 | Ki |
| --- | --- | --- |
| O=C(NC1CCCc2ccccc21)C(CCC(=O)N1CCN(C2CCCCC2)CC1)N1C(=O)C(N2C(=O)OCC2c2ccccc2)C1C=Cc1cccc(C(F)(F)F)c1 (stereo not drawn) [Example 246] | 2.1 nM | 1.3 nM |
| CN(Cc1cccc(C(F)(F)F)c1)C(=O)C(CCC(=O)N1CCN(C2CCCCC2)CC1)N1C(=O)C(N2C(=O)OCC2c2ccccc2)C1C=Cc1ccccc1 (stereo not drawn) [Example 205] | 0.34 nM | 0.21 nM |
| Cc1ccc(C2(NC(=O)C(CCC(=O)N3CCN(C4CCCCC4)CC3)N3C(=O)C(N4C(=O)OCC4c4ccccc4)C3C=Cc3ccccc3)CC2)cc1 (stereo not drawn) [Example 221AP] | – | 3.8 nM |
| O=C(NCc1cccnc1)C(CCC(=O)N1CCN(C2CCCCC2)CC1)N1C(=O)C(N2C(=O)OCC2c2ccccc2)C1C=Cc1ccccc1 (stereo not drawn) [Example 209] | 16 nM | 9.8 nM |
| O=C(NCc1cc(F)cc(C(F)(F)F)c1)C(CCC(=O)N1CCN(C2CCCCC2)CC1)N1C(=O)C(N2C(=O)OCC2c2ccccc2)C1C=Cc1ccccc1 (stereo not drawn) [Example 179] | 0.81 nM | 0.51 nM |
| O=C(C(COCc1ccccc1)N1C(=O)C(N2C(=O)OCC2c2ccccc2)C1C=Cc1ccccc1)N1CCC(CN2CCCCC2)CC1 (stereo not drawn) [Example 232E] | 0.28 nM | 0.17 nM |
| O=C(NC1(c2ccccc2)CCCC1)C(CCC(=O)N1CCN(C2CCCCC2)CC1)N1C(=O)C(N2C(=O)OCC2c2ccccc2)C1C=Cc1cccc(Cl)c1 (stereo not drawn) [Example 244] | 3.4 nM | 2.1 nM |
| (2S)-[(4-cyclohexylpiperazinyl)carbonylethyl]-2-[3(S)-(4(S)-phenyloxazolidin-2-on-3-yl)-4(R)-(2-phenyleth-1-yl)azetidin-2-on-1-yl]acetic acid N—[(R)-1,2,3,4-tetrahydronaphth-1-yl]amide [Example 236A] | 9 nM | 5.5 nM |
| O=C(NC1CCc2ccccc21)C(CCC(=O)N1CCN(C2CCCCC2)CC1)N1C(=O)C(N2C(=O)OCC2c2ccccc2)C1C=Cc1ccccc1 (stereo not drawn) [Example 221R] | 5.13 nM | 3.14 nM |
| Cc1ccc(CNC(=O)C(CCC(=O)N2CCN(C3CCCCC3)CC2)N2C(=O)C(N3C(=O)OCC3c3ccccc3)C2C=Cc2ccccc2)o1 (stereo not drawn) [Example 212] | 0.95 nM | 0.58 nM |
| O=C(NCc1cc(C(F)(F)F)cc(C(F)(F)F)c1)C(CCC(=O)N1CCN(C2CCCCC2)CC1)N1C(=O)C(N2C(=O)OCC2c2ccccc2)C1C=Cc1ccccc1 (stereo not drawn) [Example 188] | 7.26 nM | 4.45 nM |
| O=C(NCc1cccc(C(F)(F)F)c1F)C(CCC(=O)N1CCN(C2CCCCC2)CC1)N1C(=O)C(N2C(=O)OCC2c2ccccc2)C1C=Cc1ccccc1 (stereo not drawn) [Example 180] | 0.33 nM | 0.2 nM |
| CC(NC(=O)C(CC(=O)N1CCC(N2CCCCC2)CC1)N1C(=O)C(N2C(=O)OCC2c2ccccc2)C1CCc1cccc(N)c1)c1ccccc1 (stereo not drawn) [Example 600] | 14.4 nM | 8.8 nM |
| Cc1cccc(CCC2C(N3C(=O)OCC3c3ccccc3)C(=O)N2C(CC(=O)N2CCC(N3CCCCC3)CC2)C(=O)NC(C)c2ccccc2)c1 (stereo not drawn) [Example 778] | – | 0.63 nM |
| CC(NC(=O)C(CC(=O)N1CCC(N2CCCCC2)CC1)N1C(=O)C(N2C(=O)OCC2c2ccccc2)C1CCc1cccc(Br)c1)c1ccccc1 (stereo not drawn) [Example 606] | 0.53 nM | 0.32 nM |
| O=C(NCc1ccccc1Br)C(CC(=O)N1CCC(N2CCCCC2)CC1)N1C(=O)C(N2C(=O)OCC2c2ccccc2)C1CCc1ccccc1 (stereo not drawn) [Example 682] | – | 0.9 nM |
| CC(NC(=O)C(CC(=O)N1CCC(N2CCCCC2)CC1)N1C(=O)C(N2C(=O)OCC2c2cccc(Cl)c2)C1C=Cc1ccccc1)c1ccccc1 (stereo not drawn) [Example 256] | 2.8 nM | 1.7 nM |
| O=C(NC1CCCc2ccccc21)C(CCC(=O)N1CCN(C2CCCCC2)CC1)N1C(=O)C(N2C(=O)OCC2c2ccccc2)C1C=Cc1cc(Cl)cc(Cl)c1 (stereo not drawn) [Example 252] | 1.8 nM | 1.1 nM |
| COc1ccc(OC)c(CNC(=O)C(CCC(=O)N2CCN(C3CCCCC3)CC2)N2C(=O)C(N3C(=O)OCC3c3ccccc3)C2C=Cc2ccccc2)c1 (stereo not drawn) [Example 219] | 0.63 nM | 0.39 nM |
| CC(NC(=O)C(CC(=O)N1CCC(N2CCCCC2)CC1)N1C(=O)C(N2C(=O)OCC2c2ccccc2)C1CCc1cccc(Cl)c1)c1ccccc1 (stereo not drawn) [Example 559] | 0.12 nM | 0.073 nM |
| CC(C)(NC(=O)C(CCC(=O)N1CCN(C2CCCCC2)CC1)N1C(=O)C(N2C(=O)OCC2c2ccccc2)C1C=Cc1ccccc1)c1ccccc1 (stereo not drawn) [Example 204] | 6 nM | 3.7 nM |
| O=C(NCc1ccco1)C(CCC(=O)N1CCN(C2CCCCC2)CC1)N1C(=O)C(N2C(=O)OCC2c2ccccc2)C1C=Cc1ccccc1 (stereo not drawn) [Example 211] | 5.37 nM | 3.29 nM |
| O=C(NCc1cccc(Cl)c1Cl)C(CCC(=O)N1CCN(C2CCCCC2)CC1)N1C(=O)C(N2C(=O)OCC2c2ccccc2)C1C=Cc1ccccc1 (stereo not drawn) [Example 176] | 0.61 nM | 0.38 nM |
| O=C(NCc1cccc(C(F)(F)F)c1)C(CC(=O)N1CCN(N2CCCC2)CC1)N1C(=O)C(N2C(=O)OCC2c2ccccc2)C1C=Cc1ccccc1 (stereo not drawn) [Example 47] | ~50 nM | – |

The next lines start with the values.

| IC50 | Ki | Molecule |
| --- | --- | --- |
| 0.5 nM | 0.3 nM | O=C(NC1CCCc2ccccc21)C(CCC(=O)N1CCN(C2CCCCC2)CC1)N1C(=O)C(N2C(=O)OCC2c2ccccc2)C1C=Cc1cccc(Cl)c1 (stereo not drawn) [Example 243] |
| 4.5 nM | 2.78 nM | O=C(NCc1cccc(OC(F)(F)F)c1)C(CCC(=O)N1CCN(C2CCCCC2)CC1)N1C(=O)C(N2C(=O)OCC2c2ccccc2)C1C=Cc1ccccc1 (stereo not drawn) [Example 172] |
| 0.78 nM | 0.48 nM | O=C(NCc1cccs1)C(CCC(=O)N1CCN(C2CCCCC2)CC1)N1C(=O)C(N2C(=O)OCC2c2ccccc2)C1C=Cc1ccccc1 (stereo not drawn) [Example 213] |
| 1.7 nM | 1.04 nM | O=C(NCc1cccc([N+](=O)[O-])c1)C(CCC(=O)N1CCN(C2CCCCC2)CC1)N1C(=O)C(N2C(=O)OCC2c2ccccc2)C1C=Cc1ccccc1 (stereo not drawn) [Example 189] |
| 2.75 nM | 1.68 nM | O=C(NCc1cccc(C(F)(F)F)c1)C(CCC(=O)N1CCN(C2CCCCC2)CC1)N1C(=O)C(N2C(=O)OCC2c2ccccc2)C1C=Cc1ccccc1 (stereo not drawn) [Example 120H] |
| 0.6 nM | 0.39 nM | CN(Cc1cccc(C(F)(F)F)c1)C(=O)C(CC(=O)N1CCC(N2CCCCC2)CC1)N1C(=O)C(N2C(=O)OCC2c2ccccc2)C1C=Cc1cccc(Cl)c1 (stereo not drawn) [Example 247] |
| – | 3 nM | O=C(NCc1ccccc1F)C(CC(=O)N1CCC(N2CCCCC2)CC1)N1C(=O)C(N2C(=O)OCC2c2ccccc2)C1CCc1ccccc1 (stereo not drawn) [Example 677] |
| 1.58 nM | 0.97 nM | CC(NC(=O)C(CCC(=O)N1CCN(C2CCCCC2)CC1)N1C(=O)C(N2C(=O)OCC2c2ccccc2)C1C=Cc1ccccc1)c1ccccc1 (stereo not drawn) [Example 206] |
| 44.8 nM | 27.5 nM | O=C(NCc1cccc(C(F)(F)F)c1)C(CC(=O)N1CCN(N2CCCC2)CC1)N1C(=O)C(N2C(=O)OCC2c2ccccc2)C1C=Cc1ccccc1 (stereo not drawn) [Example 134B] |
| 4.48 nM | 2.74 nM | O=C(NC1(c2ccccc2)CC1)C(CCC(=O)N1CCN(C2CCCCC2)CC1)N1C(=O)C(N2C(=O)OCC2c2ccccc2)C1C=Cc1ccccc1 (stereo not drawn) [Example 207] |
| 6.5 nM | 4 nM | O=C(NC1CCCc2ccccc21)C(CCC(=O)N1CCN(C2CCCCC2)CC1)N1C(=O)C(N2C(=O)OCC2c2ccccc2)C1C=Cc1ccccc1Cl (stereo not drawn) [Example 250] |
| 1.1 nM | 0.68 nM | O=C(NC1CCCc2ccccc21)C(CCC(=O)N1CCN(C2CCCCC2)CC1)N1C(=O)C(N2C(=O)OCC2c2ccccc2)C1C=Cc1cccc(F)c1 (stereo not drawn) [Example 245] |
| 15 nM | – | O=C(CCC(C(=O)NCc1cccc(C(F)(F)F)c1)N1C(=O)C(N2C(=O)OCC2c2ccccc2)C1C=Cc1ccccc1)NCCN1CCCCC1 (stereo not drawn) [Example 87] |
| 0.67 nM | 0.41 nM | O=C(NCc1cc(C(F)(F)F)ccc1F)C(CCC(=O)N1CCN(C2CCCCC2)CC1)N1C(=O)C(N2C(=O)OCC2c2ccccc2)C1C=Cc1ccccc1 (stereo not drawn) [Example 177] |
| 6.2 nM | 3.8 nM | CC(NC(=O)C(CC(=O)N1CCC(N2CCCCC2)CC1)N1C(=O)C(N2C(=O)OCC2c2ccccc2)C1CCc1cccc([N+](=O)[O-])c1)c1ccccc1 (stereo not drawn) [Example 597] |
| 1.7 nM | 1.04 nM | C[C@@H](NC(=O)[C@H](CCC(=O)N1CCN(C2CCCCC2)CC1)N1C(=O)[C@@H](N2C(=O)OC[C@@H]2c2ccccc2)[C@H]1/C=C/c1ccccc1)c1cccc(C(F)(F)F)c1 [Example 221F] |
| 1.7 nM | 1.1 nM | O=C(NC1Cc2ccccc2C1)C(CCC(=O)N1CCN(C2CCCCC2)CC1)N1C(=O)C(N2C(=O)OCC2c2ccccc2)C1C=Cc1ccccc1 (stereo not drawn) [Example 221P] |
| 1.7 nM | 1 nM | O=C(NC1CCCc2ccccc21)C(CCC(=O)N1CCN(C2CCCCC2)CC1)N1C(=O)C(N2C(=O)OCC2c2ccccc2)C1C=Cc1cccc([N+](=O)[O-])c1 (stereo not drawn) [Example 249] |
